Assays:
[1] = molecular target: T1, Human Thyroid Hormone Receptor β1 (TRβ1) (Homo sapiens, UniProt P10828); test: Transcription activation test of human thyroid hormone receptor β1 (luciferase reporter in 293T cells); format: cell-based; details: EC50 of transcription activation on TRβ1, 293T cells, luciferase activity after 24 hr; read-out: TRβ
T1 construct: expressed in transfected cells; host or cells: 293T cells
T1 sequence (P10828 1-461): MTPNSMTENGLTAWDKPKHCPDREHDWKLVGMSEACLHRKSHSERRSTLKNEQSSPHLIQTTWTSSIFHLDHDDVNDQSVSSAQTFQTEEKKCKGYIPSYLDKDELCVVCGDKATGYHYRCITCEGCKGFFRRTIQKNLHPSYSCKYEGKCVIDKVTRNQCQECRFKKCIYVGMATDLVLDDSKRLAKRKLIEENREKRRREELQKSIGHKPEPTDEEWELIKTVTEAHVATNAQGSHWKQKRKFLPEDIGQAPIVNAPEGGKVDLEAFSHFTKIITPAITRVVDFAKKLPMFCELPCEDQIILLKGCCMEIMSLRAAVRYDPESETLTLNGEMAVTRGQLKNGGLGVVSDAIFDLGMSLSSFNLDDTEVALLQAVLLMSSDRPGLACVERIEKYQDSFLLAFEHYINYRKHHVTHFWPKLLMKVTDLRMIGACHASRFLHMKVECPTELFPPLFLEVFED
Description: (§1) Transcription Activation Test of Human Thyroid Hormone Receptors α1 (TRα1) and β1 (TRβ1)
(§2) pcDNA3.1 vector (manufactured by Invitrogen) that expresses TRα1 or β1 cloned from human liver-derived cells, and firefly luciferase expression vector pDR4-LuC (manufactured by Stratagene) having a thyroid hormone response sequence to be a reporter were transfected into 293T cells cultured in Dulbecco's modified Eagle medium (DMEM) containing 10% of activated carbon/dextran-treated fetal bovine serum (FBS) by using Lipofectamine2000 (manufactured by Invitrogen). After 16 hr, the cells were plated again in a 96 well plate, and the medium was exchanged with DMEM containing 0.1% activated carbon/dextran-treated FBS. After 3 more hr, a compound diluted with dimethyl sulfoxide solution was added, and the luciferase activity after 24 hr was measured.
(§3) As a positive control, 3,3′,5-triiodo-L-thyronine (T3), which is a biological ligand, was used. The transcription activation action of the compound on TRα1 and TRβ1 was shown by each EC50 value and the maximum luciferase activity value relative to the maximum luciferase activity value of T3 as 100.

[2] = molecular target: T2, Human Thyroid Hormone Receptor α1 (TRα1) (Homo sapiens, UniProt P10827); test: Transcription activation test of human thyroid hormone receptor α1 (luciferase reporter in 293T cells); format: cell-based; details: ratio TRα/TRβ of the transcription activation EC50 values
T2 construct: expressed in transfected cells; host or cells: 293T cells
T2 sequence (P10827 1-410 isoform P10827-2): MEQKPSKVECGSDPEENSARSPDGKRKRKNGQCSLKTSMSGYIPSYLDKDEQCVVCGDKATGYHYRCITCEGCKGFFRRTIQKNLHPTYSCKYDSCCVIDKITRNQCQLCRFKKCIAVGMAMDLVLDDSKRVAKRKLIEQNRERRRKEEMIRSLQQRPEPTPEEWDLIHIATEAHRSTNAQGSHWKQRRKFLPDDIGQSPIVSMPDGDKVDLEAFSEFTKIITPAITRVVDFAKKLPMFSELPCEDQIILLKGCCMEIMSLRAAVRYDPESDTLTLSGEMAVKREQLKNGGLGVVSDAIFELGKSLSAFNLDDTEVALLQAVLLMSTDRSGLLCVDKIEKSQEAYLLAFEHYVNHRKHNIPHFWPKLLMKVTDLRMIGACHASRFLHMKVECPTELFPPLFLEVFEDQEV
Description: as §1, §2, §3

Cc1cc(OCC(=O)O)c(C)c(C)c1Cc1ccc(O)c(-c2cccc(Cl)c2)n1 [Example 173, (4-{[6-(3-chlorophenyl)-5-hydroxypyridin-2-yl]methyl}-2,3,5-trimethylphenoxy)acetic acid]
EC50 [1]: 0.4 nM | selectivity (TRα/TRβ) [2]: A (5<(TRα/TRβ))

Cc1cc(OCc2noc(=O)[nH]2)c(C)c(C)c1Cc1ccc(O)c(C2CCCCC2)n1 [Example 34, 3-({4-[(6-cyclohexyl-5-hydroxypyridin-2-yl)methyl]-2,3,5-trimethylphenoxy}methyl)-1,2,4-oxadiazol-5(4H)-one]
EC50 [1]: 0.4 nM | selectivity (TRα/TRβ) [2]: B (2<(TRα/TRβ)<5)

Cc1cc(OCC(=O)O)c(C)c(C)c1Cc1ccc(O)c(C2CCCO2)n1 (centres unmarked) [Example 6, (4-{[5-hydroxy-6-(tetrahydrofuran-2-yl)pyridin-2-yl]methyl}-2,3,5-trimethylphenoxy)acetic acid]
EC50 [1]: 50 nM | selectivity (TRα/TRβ) [2]: B (2<(TRα/TRβ)<5)

Cc1cc(NC(=O)C(=O)O)cc(C)c1Cc1ccc(O)c(C2CCCCC2)n1 [Example 19, ({4-[(6-cyclohexyl-5-hydroxypyridin-2-yl)methyl]-3,5-dimethylphenyl}amino)(oxo)acetic acid]
EC50 [1]: 5 nM | selectivity (TRα/TRβ) [2]: B (2<(TRα/TRβ)<5)

Cc1cc(OCC(=O)O)c2c(c1Cc1ccc(O)c(C3CCCCC3)n1)CCC2 [Example 152, ({7-[(6-cyclohexyl-5-hydroxypyridin-2-yl)methyl]-6-methyl-2,3-dihydro-1H-inden-4-yl}oxy)acetic acid]
EC50 [1]: 5 nM | selectivity (TRα/TRβ) [2]: B (2<(TRα/TRβ)<5)

Cc1cc(OCC(=O)O)c(F)c(C)c1Cc1ccc(O)c(C2CCCCC2)n1 [Example 12, {4-[(6-cyclohexyl-5-hydroxypyridin-2-yl)methyl]-2-fluoro-3,5-dimethylphenoxy}acetic acid]
EC50 [1]: 0.7 nM | selectivity (TRα/TRβ) [2]: B (2<(TRα/TRβ)<5)

Cc1cc(OCc2noc(=O)[nH]2)c(C)c(C)c1Cc1ccc(O)c(C(C)C)n1 [Example 31, 3-({4-[(5-hydroxy-6-isopropylpyridin-2-yl)methyl]-2,3,5-trimethylphenoxy}methyl)-1,2,4-oxadiazol-5(4H)-one]
EC50 [1]: 0.2 nM | selectivity (TRα/TRβ) [2]: B (2<(TRα/TRβ)<5)

Cc1cc(OCC(=O)O)c(C)c(C)c1Oc1ccc(O)c(C2CCCCC2)n1 [Example 10, {4-[(6-cyclohexyl-5-hydroxypyridin-2-yl)oxy]-2,3,5-trimethylphenoxy}acetic acid]
EC50 [1]: 30 nM | selectivity (TRα/TRβ) [2]: B (2<(TRα/TRβ)<5)

Cc1cc(OCC(=O)O)c(F)c(C)c1Cc1ccc(O)c(C(C)C)n1 [Example 11, {2-fluoro-4-[(5-hydroxy-6-isopropylpyridin-2-yl)methyl]-3,5-dimethylphenoxy}acetic acid]
EC50 [1]: 1 nM | selectivity (TRα/TRβ) [2]: B (2<(TRα/TRβ)<5)

Cc1cc(OCC(=O)O)c(C)c(C)c1Cc1ccc(O)c(C(C)C)n1 [Example 4, {4-[(5-hydroxy-6-isopropylpyridin-2-yl)methyl]-2,3,5-trimethylphenoxy}acetic acid]
EC50 [1]: 0.5 nM | selectivity (TRα/TRβ) [2]: B (2<(TRα/TRβ)<5)

Cc1cc(OCc2noc(=O)[nH]2)cc(C)c1Cc1ccc(O)c(C(C)C)n1 [Example 27, 3-({4-[(5-hydroxy-6-isopropylpyridin-2-yl)methyl]-3,5-dimethylphenoxy}methyl)-1,2,4-oxadiazol-5(4H)-one]
EC50 [1]: 0.3 nM | selectivity (TRα/TRβ) [2]: C (2>(TRα/TRβ))

Cc1cccc(-c2nc(Cc3c(C)cc(OCc4noc(=O)[nH]4)c(F)c3C)ccc2O)c1F [Example 60, 3-[(2-fluoro-4-{[6-(2-fluoro-3-methylphenyl)-5-hydroxypyridin-2-yl]methyl}-3,5-dimethylphenoxy)methyl]-1,2,4-oxadiazol-5(4H)-one]
EC50 [1]: 0.6 nM | selectivity (TRα/TRβ) [2]: A (5<(TRα/TRβ))

Cc1cc(OCC(=O)O)c(C#N)c(C)c1Cc1ccc(O)c(C2CCCCC2)n1 [Example 44, {2-cyano-4-[(6-cyclohexyl-5-hydroxypyridin-2-yl)methyl]-3,5-dimethylphenoxy}acetic acid]
EC50 [1]: 200 nM | selectivity (TRα/TRβ) [2]: B (2<(TRα/TRβ)<5)

Cc1cc(CC(=O)O)c(C)c(C)c1Cc1ccc(O)c(C2CCCCC2)n1 [Example 41, {4-[(6-cyclohexyl-5-hydroxypyridin-2-yl)methyl]-2,3,5-trimethylphenyl}acetic acid]
EC50 [1]: 4 nM | selectivity (TRα/TRβ) [2]: B (2<(TRα/TRβ)<5)

Cc1cc(OCC(=O)O)c(C)c(C)c1Cc1ccc(O)c(C2CCCCC2)n1 [Example 7, {4-[(6-cyclohexyl-5-hydroxypyridin-2-yl)methyl]-2,3,5-trimethylphenoxy}acetic acid]
EC50 [1]: 1 nM | selectivity (TRα/TRβ) [2]: A (5<(TRα/TRβ))

Cc1nc(OCC(=O)O)c(C)c(C)c1Cc1ccc(O)c(C2CCCCC2)n1 [Example 45, ({5-[(6-cyclohexyl-5-hydroxypyridin-2-yl)methyl]-3,4,6-trimethylpyridin-2-yl}oxy)acetic acid]
EC50 [1]: 5 nM | selectivity (TRα/TRβ) [2]: A (5<(TRα/TRβ))

CCc1cc(OCC(=O)O)c(C)c(C)c1Cc1ccc(O)c(-c2cccc(F)c2)n1 [Example 269, (5-ethyl-4-{[6-(3-fluorophenyl)-5-hydroxypyridin-2-yl]methyl}-2,3-dimethylphenoxy)acetic acid]
EC50 [1]: 0.7 nM | selectivity (TRα/TRβ) [2]: A (5<(TRα/TRβ))

Cc1cc(NC(=O)CC(=O)O)cc(C)c1Cc1ccc(O)c(C2CCCCC2)n1 [Example 23, 3-({4-[(6-cyclohexyl-5-hydroxypyridin-2-yl)methyl]-3,5-dimethylphenyl}amino)-3-oxopropanoic acid]
EC50 [1]: 10 nM | selectivity (TRα/TRβ) [2]: A (5<(TRα/TRβ))

Cc1cc(OCC(=O)O)c(C)c(C)c1Cc1ccc(O)c(-c2cccc(F)c2)n1 [Example 171, {4-[6-(3-fluoro-phenyl)-5-hydroxy-pyridin-2-ylmethyl]-2,3,5-trimethyl-phenoxy}acetic acid]
EC50 [1]: 2 nM | selectivity (TRα/TRβ) [2]: A (5<(TRα/TRβ))

Cc1cc(CC(F)C(=O)O)c(C)c(C)c1Cc1ccc(O)c(C2CCCCC2)n1 (centres unmarked) [Example 136, 3-{4-[(6-cyclohexyl-5-hydroxypyridin-2-yl)methyl]-2,3,5-trimethylphenyl}-2-fluoropropanoic acid]
EC50 [1]: 1 nM | selectivity (TRα/TRβ) [2]: C (2>(TRα/TRβ))

Cc1cc(OC(C)(C)C(=O)O)cc(C)c1Cc1ccc(O)c(C2CCCCC2)n1 [Example 16, 2-{4-[(6-cyclohexyl-5-hydroxypyridin-2-yl)methyl]-3,5-dimethylphenoxy}-2-methylpropanoic acid]
EC50 [1]: 20 nM | selectivity (TRα/TRβ) [2]: B (2<(TRα/TRβ)<5)

Cc1cc(NC(=O)CC(=O)O)c(C)c(C)c1Cc1ccc(O)c(C2CCCCC2)n1 [Example 24, 3-({4-[(6-cyclohexyl-5-hydroxypyridin-2-yl)methyl]-2,3,5-trimethylphenyl}amino)-3-oxopropanoic acid]
EC50 [1]: 30 nM | selectivity (TRα/TRβ) [2]: B (2<(TRα/TRβ)<5)

Cc1cc(OCc2noc(=O)[nH]2)c(F)c(C)c1Cc1ccc(O)c(-c2cccc(N3CCCC3)c2)n1 [Example 206, 3-[(2-fluoro-4-{[5-hydroxy-6-(3-pyrrolidin-1-ylphenyl)pyridin-2-yl]methyl}-3,5-dimethylphenoxy)methyl]-1,2,4-oxadiazol-5(4H)-one]
EC50 [1]: 3 nM | selectivity (TRα/TRβ) [2]: A (5<(TRα/TRβ))

COCC1(c2nc(Cc3c(C)cc(OCc4noc(=O)[nH]4)c(F)c3C)ccc2O)CCCCC1 [Example 268, 3-{[2-fluoro-4-({5-hydroxy-6-[1-(methoxymethyl)cyclohexyl]pyridin-2-yl}methyl)-3,5-dimethylphenoxy]methyl}-1,2,4-oxadiazol-5(4H)-one]
EC50 [1]: 1 nM | selectivity (TRα/TRβ) [2]: B (2<(TRα/TRβ)<5)

Cc1cc(OCC(=O)O)c(C)c(C)c1Cc1ccc(O)c(C2CCCC2)n1 [Example 5, {4-[(6-cyclopentyl-5-hydroxypyridin-2-yl)methyl]-2,3,5-trimethylphenoxy}acetic acid]
EC50 [1]: 0.5 nM | selectivity (TRα/TRβ) [2]: A (5<(TRα/TRβ))

From patent US8791266B2, “Thyroid hormone β receptor agonist” (Mitsubishi Tanabe Pharma Corporation, priority 2009, dated 2014)
